Publication PMC3604760 (mBio, 2013)

Columns and labels:
MBP-cTlp1 [1] = molecular target: MBP-cTlp1 (Azospirillum brasilense, UniProt Q64I05, R562A); test: equilibrium dialysis, HPLC quantification; assay type: binding
MBP-cTlp1 [2] = molecular target: MBP-cTlp1 (Azospirillum brasilense, UniProt Q64I05); test: equilibrium dialysis, HPLC quantification; assay type: binding
MBP-cTlp1 (Azospirillum brasilense, UniProt Q64I05), sequence (Q64I05 344-660): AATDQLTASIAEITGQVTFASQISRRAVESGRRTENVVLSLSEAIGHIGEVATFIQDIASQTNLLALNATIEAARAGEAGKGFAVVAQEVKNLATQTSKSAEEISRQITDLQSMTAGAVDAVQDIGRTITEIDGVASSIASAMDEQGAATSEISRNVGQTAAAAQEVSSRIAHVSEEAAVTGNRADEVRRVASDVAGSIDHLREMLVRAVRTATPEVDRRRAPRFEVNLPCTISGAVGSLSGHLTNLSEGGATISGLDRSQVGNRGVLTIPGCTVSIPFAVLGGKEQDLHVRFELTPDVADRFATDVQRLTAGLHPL

MBP-cTlp1 (Azospirillum brasilense, UniProt Q64I05, R562A), sequence (Q64I05 344-660 R562A): as the sequence (Q64I05 344-660) above, with R219A counted along it

## Nc1nc2c(ncn2[C@@H]2O[C@@H]3CO[P@](=O)(O)O[C@H]4[C@@H](O)[C@H](n5cnc6c(=O)[nH]c(N)nc65)O[C@@H]4CO[P@](=O)(O)O[C@H]3[C@H]2O)c(=O)[nH]1 [c-di-GMP]
MBP-cTlp1 [1]
  Kd: 21.8 ± 7.1 µM
MBP-cTlp1 [2]
  Kd: 6.9 ± 1.2 µM
